What was measured:
BP-sgControl tumors = assay: BP-sgControl tumor growth and survival in FVB mice; format: in vivo, mouse; details: DMXAA 10 mg/kg i.p. weekly; olaparib 50 mg/kg i.p. q.d.; FIG. 11G
Method: Primary mammary tumor cells for orthotopic injection were resuspended in serum-free DMEM containing 40% matrigel (Corning). 5×10^5 tumor cells in a total volume of 100 μL were injected orthotopically into the thoracic mammary fat pads of 8-week-old female FVB/NJ mice (The Jackson Laboratory). Tumor growth was examined by measuring the greatest longitudinal diameter (length) and the greatest transverse diameter (width) with digital calipers, and tumor volume was calculated by use of the modified ellipsoid formula (0.52×length×width2). Tumors were measured 2-3 times a week. All tumor measurements within single cohorts were performed by the same researcher. Tumor-bearing mice were randomized prior to start of treatment. Drug treatments were started when mean tumor volumes approximated 50-100 mm3. Mice were euthanized by CO2 inhalation when tumor volumes met humane endpoints described in the IACUC (20 mm diameter) protocols or upon severe health deterioration.
Olaparib (MedChem, #HY-10162) was prepared by diluting 100 mg/l mL stocks in DMSO with 10% (2-Hydroxypropyl)-β-cyclodextrin (HPCD, MedChem, #101103) in PBS and administered immediately after drug preparation by intraperitoneal (i.p.) injection at a dose of 50 mg/kg body weight daily. DMXAA (Sigma, #D5817) was reconstituted at 10 mg/mL in 7.5% NaHCO3(Gibco). […]

DF86 PDX = assay: DF86 ovarian PDX with human bone marrow monocytes in NSG mice; format: in vivo
From the text: For the PDX in vivo experiments, about 3×10^6 PDX tumor cells were mixed with 3×10^6 human bone marrow mononuclear cells in serum-free DMEM/F12 medium containing 50% Matrigel (CAT #70001, […] Technology) and intraperitoneally transplanted into NOD/SCID IL2Rgnull mice (NSG, The Jackson Laboratory). About three weeks after injection, PDX-bearing mice were equivalently divided into 4 groups according to the luminescent intensity and treated with vehicle control, olaparib, MSA-2 and olaparib in combination with MSA-2 using the same dosing and schedule that have been described above. Ascites was harvested for analysis after three weeks' treatment.
Tumors were chopped and digested in collagenase buffer as described previously (Ding et al., 2018 Cell Rep 25, 2972-2980.e2975). Single cell suspensions of tumor and ascites were obtained by filtering through 70 um strainers and treated with 1× eBioscience RBC lysis buffer (Thermo Fisher) before staining. Single cells suspensions were incubated with LIVE/DEAD Fixable Aqua Dead Cell Stain (Life Technologies, Cat #L34965) for 30 min and then blocked with anti-CD16/32 (Biolegend, clone 93) for 20 min on ice. Samples were then incubated with appropriate antibodies for 30 min on ice. Foxp3 staining buffer set (eBioscience, Cat #00-5523-00) was applied for intracellular markers staining. For the intracellular cytokine analysis, cells were stimulated with Leukocyte Activation Cocktail (BD Biosciences, Cat #550583) at 37° C. for 4-6 hours prior to FACS staining. The following antibodies were used in this study: antibodies were purchased from BioLegend unless otherwise indicated: CD45 (clone 30-F11), CD3ε (clone 145-2C11), CD4 (clone RM4-5), CD8 (clone 53-6.7), CD44 (clone IM7), CD62L (MEL-14), CD25 (PC61), IFNγ (clone XMG1.2), TNFα (clone MP6-XT22), CD11b (clone M1/70), CD11c […], F4/80 (clone BM8), Ly-6C (clone HK1.4), Ly-6G (clone 1A8), MHC-II (clone M5/114.15.2), CD80 (clone 16-10A1), CD86 (clone GL-1), MHC-I (clone KH114), FoxP3 (clone FJK-16 s; eBioscience), Phospho-IRF-3 (Ser396) (clone D601M, Cell signaling technology) and Phospho-TBK1/NAK (Ser172) (clone D52C2, Cell signaling technology). The following human antibodies were used in this study: cell surface markers includes CD45 (clone H130), CD11b (clone M1/70), CD11c (clone Bu15), CD80 (clone 2D10), CD86 (clone IT2.2), CD14 (clone 63D3), CD15 […], HLA-DR (clone L243) and HLA-A,B,C (clone W6/32); intracellular markers include CD163 (clone GHI/61), CD68 (clone Y1/82A) and CD206 (clone 15-2). Flow cytometry was performed on an LSRII (BD Biosciences) or Fortessa HTS (BD Biosciences) at DFCI Flow Cytometry Core, and all the data were analyzed using FlowJo software.

[1] = tested on: WT BMDMs and STING^−/− BMDMs; assay: WT and STING^−/− BMDMs cultured in CM from ID8-Brca1^−/− cells; format: cell-based, mouse; details: CM of control or olaparib-treated ID8-Brca1^−/− cells; FIG. 21I
Method: For ex vivo culture of mouse macrophages, bone marrow cells were isolated from FVB/NJ mice and cultured in DMEM containing 10% FBS, 55 μM 2-Mercaptoethanol and 20 ng/ml M-CSF. BMDMs (bone marrow derived macrophages) were harvested on day 7 and further cultured in 2.0 ml control medium (90% DMEM, 10% FBS, 55 μM 2-Mercaptoethanol and 5 ng/ml M-CSF) described above or the medium containing 50% tumor cell conditioned medium for 72 hrs before analysis. For the tumor cell conditioned medium, about 3×10^5 tumor cells were cultured in 6-well plate for 24 hrs and then treated with DMSO or olaparib. After 24 hrs incubation with DMSO or olaparib, the tumor cells were washed twice with PBS and cultured in DMEM containing 10% FBS for 48 hrs. The tumor cell conditioned medium was collected by centrifugation at 1,500 g for 5 min at 4° C. to remove all the debris and cells. For the cytokine blocking experiment, monoclonal antibodies that specific to each cytokine were added to the tumor cell conditioned medium before it was applied to culture macrophages.

| SMILES | BP-sgControl tumor growth (BP-sgControl tumors) | proportion of TAMs in ascites (DF86 PDX; FIG. 25H) | M1/M2 ratio in ascites (DF86 PDX; FIG. 25I) | CD14^+ myeloid DCs (CD14^+HLA-DR^+) (DF86 PDX; FIG. 25J) | tumor burden (fold change of intensity of luciferase signal) (DF86 PDX; compared to control or olaparib treated mice, FIG. 25G) | M2-like TAM polarization of WT BMDMs [1] |
| --- | --- | --- | --- | --- | --- | --- |
| Cc1ccc2c(=O)c3cccc(CC(=O)O)c3oc2c1C [DMXAA, 5,6-dimethyl-xanthenone-4-acetic acid] | no significant impact |  |  |  |  |  |
| COc1cc2cc(C(=O)CCC(=O)O)sc2cc1OC [MSA-2] |  | decreased proportion of TAMs | increased M1/M2 ratio | significantly increased | significantly decreased | successfully reversed |

— patent US20250009743A1, “METHODS OF TREATING CANCERS USING STING AGONISTS” (Dana-Farber Cancer Institute, Inc., priority 2021, published 2025)
